# In PMC6858373 (Scientific Reports, 2019):
# Like-named read-outs stand apart in the source and are kept apart here.
# Columns and labels:
# [1] = test system: Clone V cells
# [2] = target: T1, FGF14:Nav1.6 C-tail complex (Homo sapiens, UniProt Q92915+Q9UQD0); assay: Split-luciferase complementation assay (LCA) in Clone V double stable HEK293 cells; type: cell-based
# T1 construct: polymerase chain reaction (PCR) amplification of the FGF14 open reading frame (nt 1–855); C-terminal fragment of Nav1.6 (amino acids 1763–1976) fused with CD4ΔC-tail (amino acids 1–395); expressed in transfected cells
# T1 sequence (Q92915 1-252 isoform Q92915-2): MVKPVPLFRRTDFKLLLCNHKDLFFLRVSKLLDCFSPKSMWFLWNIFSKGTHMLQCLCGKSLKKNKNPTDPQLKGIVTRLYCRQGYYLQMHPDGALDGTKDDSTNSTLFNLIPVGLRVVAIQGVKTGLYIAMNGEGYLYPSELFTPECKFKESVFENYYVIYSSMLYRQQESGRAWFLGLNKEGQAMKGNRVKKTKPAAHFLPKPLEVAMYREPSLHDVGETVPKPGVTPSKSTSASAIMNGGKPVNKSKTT
# T1 sequence (Q9UQD0 1763-1976 limits assumed): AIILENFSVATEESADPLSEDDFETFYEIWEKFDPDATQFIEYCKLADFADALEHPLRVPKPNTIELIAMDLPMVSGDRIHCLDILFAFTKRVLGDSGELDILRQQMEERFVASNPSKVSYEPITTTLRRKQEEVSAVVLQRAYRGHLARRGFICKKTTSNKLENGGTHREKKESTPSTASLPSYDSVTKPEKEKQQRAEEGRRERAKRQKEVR
# [3] = target: full-length P. pyralis luciferase (Photinus pyralis, UniProt P08659, K549A/L550V/N119G/N50D/S548I); type: cell-based
# Chain of full-length P. pyralis luciferase (P08659 whole entry N50D/N119G/S548I/K549A/L550V, looked up): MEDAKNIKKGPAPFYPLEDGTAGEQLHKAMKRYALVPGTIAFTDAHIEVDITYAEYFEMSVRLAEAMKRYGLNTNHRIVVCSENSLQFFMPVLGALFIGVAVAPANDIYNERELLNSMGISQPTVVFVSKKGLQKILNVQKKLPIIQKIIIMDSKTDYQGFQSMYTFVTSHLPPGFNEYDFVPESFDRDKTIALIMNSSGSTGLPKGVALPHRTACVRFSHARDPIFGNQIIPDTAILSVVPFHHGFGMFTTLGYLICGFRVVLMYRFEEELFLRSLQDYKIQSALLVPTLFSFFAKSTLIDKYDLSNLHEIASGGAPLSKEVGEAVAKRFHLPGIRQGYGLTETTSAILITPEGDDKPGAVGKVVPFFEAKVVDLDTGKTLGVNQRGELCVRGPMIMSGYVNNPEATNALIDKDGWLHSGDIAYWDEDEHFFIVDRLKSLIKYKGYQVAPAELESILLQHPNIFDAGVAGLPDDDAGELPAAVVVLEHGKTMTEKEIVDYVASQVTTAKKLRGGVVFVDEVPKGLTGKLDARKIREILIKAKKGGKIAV
# [4] = CC_NCI screening, LCA luminescence, biological replicate Set 1, normalized to on-plate 0.3% DMSO controls (n=16 per plate)
# [5] = CC_NCI screening, LCA luminescence, biological replicate Set 2, normalized to on-plate 0.3% DMSO controls (n=16 per plate)
# [6] = CC_NCI screening, LCA, biological replicate Set 1, normalized to on-plate 0.3% DMSO controls
# [7] = CC_NCI screening, LCA, biological replicate Set 2, normalized to on-plate 0.3% DMSO controls
# [8] = CC_NCI screening, average of Set 1 and Set 2, normalized to 0.3% DMSO controls
# [9] = CC_NCI screening, full-length luciferase counter-screen luminescence, normalized to on-plate 0.3% DMSO controls
# [10] = CC_NCI screening, full-length luciferase counter-screen, normalized to on-plate 0.3% DMSO controls
# [11] = CC_NCI screening, biological replicate Set 1, normalized to on-plate 0.3% DMSO controls
# [12] = CC_NCI screening, biological replicate Set 2, normalized to on-plate 0.3% DMSO controls
# [13] = CC_NCI screening, biological replicate Set 2, normalized to on-plate 0.3% DMSO controls (n=16 per plate)
# [14] = average of Set 1 and Set 2, normalized to 0.3% DMSO controls
# [15] = CC_NCI screening, normalized to on-plate 0.3% DMSO controls
# [16] = CC_NCI screening, biological replicate Set 1, normalized to on-plate 0.3% DMSO controls (n=16 per plate)
compound,measurement,setting,value
C[C@]12CC[C@@H]3c4ccc(OC(=O)N(CCCl)CCCl)cc4CC[C@H]3[C@@H]1CC[C@@H]2OP(=O)(O)O [Estramustine phosphate sodium],Toxicity Assay % Fluor,[1]; human,92.97%
same,Toxicity Assay Z-score,[1]; human,-0.98
same,Split Luciferase Assay % Lum Set 1,[2],26.42%
same,Split Luciferase Assay %Lum Avg,[2],32.45%
same,Split Luciferase Assay %Lum Set 2,[2],38.49%
same,Split Luciferase Assay Z-score Set 1,[2],-5.95
same,Split Luciferase Assay Z-score Set 2,[2],-5.00
same,Luciferase Assay % Lum,[3],86.35%
same,Luciferase Assay Z-score,[3],-1.75
CO[C@H]1/C=C\C=C(/C)C(=O)NC2=CC(=O)C(NCCN(C)C)=C(C[C@@H](C)C[C@H](OC)[C@H](O)[C@@H](C)/C=C(\C)[C@@H]1OC(N)=O)C2=O [Compound 17-DMAG],Toxicity Assay % Fluor,[1],54.29%
same,Toxicity Assay Z-score,[1],-6.39
same,Split Luciferase Assay % Lum Set 1,[2]; [4],40.55%
same,Split Luciferase Assay %Lum Set 2,[2]; [5],65.54%
same,Split Luciferase Assay Z-score Set 1,[2]; [6],-4.80
same,Split Luciferase Assay Z-score Set 2,[2]; [7],-2.80
same,Split Luciferase Assay %Lum Avg,[2]; [8],53.04%
same,Luciferase Assay % Lum,[3]; [9],84.54%
same,Luciferase Assay Z-score,[3]; [10],-1.98
c1cc(-c2cnn3cc(-c4ccc(OCCN5CCCCC5)cc4)cnc23)ccn1 [COMPOUND C],Toxicity Assay % Fluor (CTB cell viability fluorescence),[1],115.42%
same,Toxicity Assay Z-score (CTB cell viability),[1],2.16
same,Split Luciferase Assay Z-score Set 1,[2]; [11],3.01
same,Split Luciferase Assay Z-score Set 2,[2]; [12],1.26
same,Split Luciferase Assay %Lum Set 2,[2]; [13],115.47%
same,Split Luciferase Assay %Lum Avg,[2]; [14],126.39%
same,Luciferase Assay % Lum (full-length luciferase counter-screen),[3]; [15],104.57%
same,Luciferase Assay Z-score (full-length luciferase counter-screen),[3]; [15],0.59
NCCCNCCSP(=O)(O)O [Amifostine],Toxicity Assay % Fluor,"[1]; human, 16 h, 30 µM",93.47%
same,Toxicity Assay Z-score,"[1]; human, 16 h, 30 µM",-0.91
same,Split Luciferase Assay % Lum Set 1,[2]; [4],109.04%
same,Split Luciferase Assay %Lum Set 2,[2]; [5],116.51%
same,Split Luciferase Assay Z-score Set 1,[2]; [6],0.73
same,Split Luciferase Assay Z-score Set 2,[2]; [7],1.34
same,Split Luciferase Assay %Lum Avg,[2]; [8],112.78%
same,Luciferase Assay % Lum,[3],101.20%
same,Luciferase Assay Z-score,[3],0.15
CCN(CC)CCNC(=O)c1c(C)[nH]c(/C=C2\C(=O)Nc3ccc(F)cc32)c1C [SUNITINIB],Toxicity Assay % Fluor,[1],93.10%
same,Split Luciferase Assay % Lum Set 1,[2]; [4],80.77%
same,Split Luciferase Assay %Lum Set 2,[2]; [5],74.90%
same,Split Luciferase Assay Z-score Set 1,[2]; [6],-1.55
same,Split Luciferase Assay Z-score Set 2,[2]; [7],-2.04
same,Split Luciferase Assay %Lum Avg,[2]; [8],77.84%
same,Luciferase Assay % Lum,[3],90.75%
same,Luciferase Assay Z-score,[3],-1.18
"Cc1ccc([N+](=O)[O-])cc1S(=O)(=O)N(C)/N=C/c1cnc2ccc(Br)cn12 [PIK 75, reference compound]",Toxicity Assay % Fluor (CTB cell viability fluorescence),[1],101.60%
same,Toxicity Assay Z-score (CTB cell viability),[1],0.22
same,Z-score (LCA primary screening),"[2]; 30 µM, 384-well, average of primary screening (n = 2), vs on-plate 0.3% DMSO",−5.01
same,Split Luciferase Assay Z-score Set 1,[2]; [11],-6.21
same,Split Luciferase Assay % Lum Set 1,[2]; [16],23.16%
same,IMin (% Luminescence),"[2]; antagonists, Clone V cells, 384-well, normalized to DMSO",38.11 % Luminescence
same,Split Luciferase Assay %Lum Avg,[2]; [14],38.11%
same,IC50,"[2]; estimated, 8-point dose response 0.25-30 µM, n = 4 per concentration, library compounds, read-out: IC50",1.63 µM
same,Luciferase Assay % Lum (full-length luciferase counter-screen),[3]; [15],87.68%
same,Luciferase Assay Z-score (full-length luciferase counter-screen),[3]; [15],-1.58
Cl.Cn1c(CCCC(=O)O)nc2cc(N(CCCl)CCCl)ccc21 [Bendamustine hydrochloride],Toxicity Assay % Fluor,[1],87.62%
same,Toxicity Assay Z-score,[1],-1.73
same,Split Luciferase Assay % Lum Set 1,[2]; [4],111.21%
same,Split Luciferase Assay %Lum Set 2,[2]; [5],127.96%
same,Split Luciferase Assay Z-score Set 1,[2]; [6],0.91
same,Split Luciferase Assay Z-score Set 2,[2]; [7],2.27
same,Split Luciferase Assay %Lum Avg,[2]; [8],119.58%
same,Luciferase Assay % Lum,[3]; [9],101.61%
same,Luciferase Assay Z-score,[3]; [10],0.21
NC(=O)c1ccc2[nH]ccc2c1 [SD 169],Toxicity Assay % Fluor (CTB cell viability fluorescence),[1],104.03%
same,Toxicity Assay Z-score (CTB cell viability),[1],0.56
same,Split Luciferase Assay Z-score Set 1,[2]; [11],2.14
same,Split Luciferase Assay % Lum Set 1,[2]; [16],126.43%
same,Split Luciferase Assay Z-score Set 2,[2]; [12],1.34
same,Split Luciferase Assay %Lum Set 2,[2]; [13],116.51%
same,Split Luciferase Assay %Lum Avg,[2]; [14],121.47%
same,Luciferase Assay % Lum (full-length luciferase counter-screen),[3]; [15],109.31%
same,Luciferase Assay Z-score (full-length luciferase counter-screen),[3]; [15],1.19
N.N.O=C([O-])C1(C(=O)[O-])CCC1.[Pt+2] [Carboplatin],Toxicity Assay % Fluor (CTB cell viability fluorescence),[1],109.23%
same,Toxicity Assay Z-score (CTB cell viability),[1],1.29
same,Split Luciferase Assay Z-score Set 1,[2]; [11],0.82
same,Split Luciferase Assay % Lum Set 1,[2]; [16],110.12%
same,Split Luciferase Assay Z-score Set 2,[2]; [12],1.17
same,Split Luciferase Assay %Lum Set 2,[2]; [13],114.43%
same,Split Luciferase Assay %Lum Avg,[2]; [14],112.28%
same,Luciferase Assay % Lum (full-length luciferase counter-screen),[3]; [15],96.43%
same,Luciferase Assay Z-score (full-length luciferase counter-screen),[3]; [15],-0.46
CO[C@@H]1[C@H](N(C)C(=O)c2ccccc2)C[C@H]2O[C@]1(C)n1c3ccccc3c3c4c(c5c6ccccc6n2c5c31)C(=O)NC4 [PKC412],Toxicity Assay % Fluor,"[1]; human, 16 h, 30 µM",83.94%
same,Toxicity Assay Z-score,"[1]; human, 16 h, 30 µM",-2.25
same,Split Luciferase Assay % Lum Set 1,[2]; [4],54.68%
same,Split Luciferase Assay %Lum Set 2,[2]; [5],67.62%
same,Split Luciferase Assay Z-score Set 1,[2]; [6],-3.66
same,Split Luciferase Assay Z-score Set 2,[2]; [7],-2.63
same,Split Luciferase Assay %Lum Avg,[2]; [8],61.15%
same,Luciferase Assay % Lum,[3]; [9],89.50%
same,Luciferase Assay Z-score,[3]; [10],-1.34
O=c1cc(-c2cccc3c2Sc2ccccc2S3)oc(N2CCOCC2)c1 [KU-55933],Toxicity Assay % Fluor,"[1]; human, 16 h, 30 µM",89.20%
same,Toxicity Assay Z-score,"[1]; human, 16 h, 30 µM",-1.51
same,Split Luciferase Assay % Lum Set 1,[2]; [4],69.90%
same,Split Luciferase Assay %Lum Set 2,[2]; [5],81.14%
same,Split Luciferase Assay Z-score Set 1,[2]; [6],-2.43
same,Split Luciferase Assay Z-score Set 2,[2]; [7],-1.53
same,Split Luciferase Assay %Lum Avg,[2]; [8],75.52%
same,Luciferase Assay % Lum,[3]; [9],33.90%
same,Luciferase Assay Z-score,[3]; [10],-8.46
Cl.N[C@@H](Cc1ccc(N(CCCl)CCCl)cc1)C(=O)O [Melphalan hydrochloride],Toxicity Assay % Fluor (CTB cell viability fluorescence),[1],107.21%
same,Toxicity Assay Z-score (CTB cell viability),[1],1.01
same,Split Luciferase Assay Z-score Set 1,[2]; [11],-1.64
same,Split Luciferase Assay % Lum Set 1,[2]; [16],79.68%
same,Split Luciferase Assay Z-score Set 2,[2]; [12],-0.10
same,Split Luciferase Assay %Lum Set 2,[2]; [13],98.83%
same,Split Luciferase Assay %Lum Avg,[2]; [14],89.26%
same,Luciferase Assay % Lum (full-length luciferase counter-screen),[3]; [15],85.47%
same,Luciferase Assay Z-score (full-length luciferase counter-screen),[3]; [15],-1.86
COc1cc2ncn(-c3cc(OCc4ccccc4C(F)(F)F)c(C(N)=O)s3)c2cc1OC [GW 843682X],Toxicity Assay % Fluor,"[1]; human, 16 h, 30 µM",106.44%
same,Toxicity Assay Z-score,"[1]; human, 16 h, 30 µM",0.90
same,Split Luciferase Assay % Lum Set 1,[2]; [4],163.39%
same,Split Luciferase Assay %Lum Set 2,[2]; [5],170.61%
same,Split Luciferase Assay Z-score Set 1,[2]; [6],5.12
same,Split Luciferase Assay Z-score Set 2,[2]; [7],5.75
same,Split Luciferase Assay %Lum Avg,[2]; [8],167.00%
same,Luciferase Assay % Lum,[3]; [9],102.89%
same,Luciferase Assay Z-score,[3]; [10],0.37
Cc1nc2c(c(=O)[nH]1)CSCC2 [DR 2313],Toxicity Assay % Fluor (CTB cell viability fluorescence),[1],106.28%
same,Toxicity Assay Z-score (CTB cell viability),[1],0.88
same,Split Luciferase Assay Z-score Set 1,[2]; [11],-1.11
same,Split Luciferase Assay % Lum Set 1,[2]; [16],86.21%
same,Split Luciferase Assay Z-score Set 2,[2]; [12],-0.26
same,Split Luciferase Assay %Lum Set 2,[2]; [13],96.75%
same,Split Luciferase Assay %Lum Avg,[2]; [14],91.48%
same,Luciferase Assay % Lum (full-length luciferase counter-screen),[3]; [15],93.50%
same,Luciferase Assay Z-score (full-length luciferase counter-screen),[3]; [15],-0.83
